Columns and labels:
Assay type in all cases: cell-based
[1] = tested on: Human liver tumor cells HepG2; assay: MTT in vitro cell proliferation inhibition experiment, HepG2; details: Homo sapiens, MTT method, 48 h contact between compound and cell, read-out: Antiproliferative activity (IC50, μM) HepG2
Experimental: (§1) Human liver tumor cells HepG2, human colon cancer cells HCT116, and human gastric adenocarcinoma cells AGS were purchased from the Institute of Basic Medical Sciences, Chinese Academy of Medical Sciences. The cells each were preserved and passaged in the laboratory of the present disclosure according to respective cultivation data. Each cell line was routinely inoculated in a 50 mL cell culture flask, and cultivated with a 10% fetal bovine serum-containing DMEM/IRP-1640 medium at 37° C., 5% CO2, and 100% humidity, where the medium was changed daily. When growing to a confluency of 80% to 90%, cells were digested with a mixture of trypsin and EDTA and passaged according to 1:3.
(§2) An in vitro cell activity and proliferation inhibition experiment was conducted by an MTT method to investigate an impact of a target compound on a survival activity of each cell. Cells at a logarithmic growth phase were inoculated at 5×10^3 cells (100 μL)/well in a 96-well culture plate and cultivated for 24 h, and then compound solutions with different concentrations prepared in advance were added (100 μL) to the plate. At least 3 replicate wells were set for each concentration. A solvent control group without a compound and a blank control group without a cell were set. Edge wells each were filled with 200 μL of sterilized water. […] A liquid in each well was completely removed carefully, 150 μL of DMSO was added to each well, the plate was gently shaken on a microshaker for 10 min to make a purple crystal fully dissolved, and then an absorbance value was determined at 570 nm by a microplate reader. With a cell viability of the solvent control group without a compound as 100%, a cell survival rate was calculated as follows: a cell survival rate=(an absorbance value of a compound group−an absorbance value of the blank control group)/(an absorbance value of the control group−an absorbance value of the blank control group)×100%. A half-maximal inhibitory concentration (IC50) of a compound for a cell was calculated by the Graphpad Prism 5 software.

[2] = tested on: human gastric adenocarcinoma cells AGS; assay: MTT in vitro cell proliferation inhibition experiment, AGS; details: Homo sapiens, MTT method, 48 h contact between compound and cell, read-out: Antiproliferative activity (IC50, μM) AGS
Experimental: as §1, §2

[3] = tested on: human colon cancer cells HCT116; assay: MTT in vitro cell proliferation inhibition experiment, HCT116; details: Homo sapiens, HCT-116, MTT method, 48 h contact between compound and cell, read-out: Antiproliferative activity (IC50, μM) HCT116
Experimental: as §1, §2

SMILES	IC50 [1] [µM]	IC50 [2] [µM]	IC50 [3] [µM]
Cc1ccc(C2C3CCCN3C3(C(=O)c4ccccc4C3=O)C2C(=O)c2nc3ccccc3[nH]2)cc1 (stereo not drawn) [Compound 4, 2-(1H-benzimidazol-2-carbonyl)-1-p-tolyl-1,2,5,6,7,7a-hexahydrospiroinden-2,3-pyrrolizine-1,3-dione]	> 100	17.1	54.2
CC(C)CC1NC2(C(=O)c3ccccc3C2=O)C(C(=O)c2nc3ccccc3[nH]2)C1c1ccc(Cl)c(F)c1 (stereo not drawn) [Compound 10, 3-(1H-benzimidazol-2-carbonyl)-4-(3-fluoro-4-chlorophenyl)-5-isobutylspiro[inden-2,2′-pyrrolidine]-1,3-dione]	87.7	46.7	15.7
CSCCC1NC2(C(=O)c3ccccc3C2=O)C(C(=O)c2nc3ccccc3[nH]2)C1c1ccc(Cl)cc1 (stereo not drawn) [Compound 35, 3-(1H-benzimidazol-2-carbonyl)-4-(4-chlorophenyl)-5-(2-methylthio)ethylspiro[inden-2,2′-pyrrolidine]-1,3-dione]	40.5	45.8	42.7
CCC(C)C1NC2(C(=O)c3ccccc3C2=O)C(C(=O)c2nc3ccccc3[nH]2)C1c1ccc(Br)cc1 (stereo not drawn) [Compound 24, 3-(1H-benzimidazol-2-carbonyl)-4-(4-bromophenyl)-5-sec-butylspiro[inden-2,2′-pyrrolidine]-1,3-dione]	67.8	3.67	45.8
O=C(c1nc2ccccc2[nH]1)C1C(c2ccc(Cl)c(F)c2)C2CCCN2C12C(=O)c1ccccc1C2=O (stereo not drawn) [Compound 2, 2-(1H-benzimidazol-2-carbonyl)-1-(3-fluoro-4-chlorophenyl)-1,2,5,6,7,7a-hexahydrospiro[inden-2,3-pyrrolizine]-1,3-dione]	> 100	> 100	> 100
CCOc1ccc(C2C3CCCN3C3(C(=O)c4ccccc4C3=O)C2C(=O)c2nc3ccccc3[nH]2)cc1 (stereo not drawn) [Compound 7, 2-(1H-benzimidazol-2-carbonyl)-1-(4-ethoxyphenyl)-1,2,5,6,7,7a-hexahydrospiroinden-2,3-pyrrolizine-1,3-dione]	20.5	7.73	7.99
CCOc1ccc(C2C(c3c[nH]c4ccccc34)NC3(C(=O)c4ccccc4C3=O)C2C(=O)c2nc3ccccc3[nH]2)cc1 (stereo not drawn) [Compound 47]	34.6	38	39.8
CCC(C)C1NC2(C(=O)c3ccccc3C2=O)C(C(=O)c2nc3ccccc3[nH]2)C1c1ccc(C)cc1 (stereo not drawn) [Compound 20, 3-(1H-benzimidazol-2-carbonyl)-5-sec-butyl-4-p-tolylspiro[inden-2,2′-pyrrolidine]-1,3-dione]	> 100	94	51.3
CC(C)C1NC2(C(=O)c3ccccc3C2=O)C(C(=O)c2nc3ccccc3[nH]2)C1c1ccc(Cl)cc1 (stereo not drawn) [Compound 27, 3-(1H-benzimidazol-2-carbonyl)-4-(4-chlorophenyl)-5-isopropylspiro[inden-2,2′-pyrrolidine]-1,3-dione]	> 100	90.1	> 100
CC(C)CC1NC2(C(=O)c3ccccc3C2=O)C(C(=O)c2nc3ccccc3[nH]2)C1c1ccc(Cl)cc1 (stereo not drawn) [Compound 11, 3-(1H-benzimidazol-2-carbonyl)-4-(4-chlorophenyl)-5-isobutylspiro[inden-2,2′-pyrrolidine]-1,3-dione]	> 100	> 100	30.3
CC(C)CC1NC2(C(=O)c3ccccc3C2=O)C(C(=O)c2nc3ccccc3[nH]2)C1c1cccc(Br)c1 (stereo not drawn) [Compound 14, 3-(1H-benzimidazol-2-carbonyl)-4-(3-bromophenyl)-5-isobutylspiro[inden-2,2′-pyrrolidine]-1,3-dione]	11.7	7.92	5.88
CC(C)C1NC2(C(=O)c3ccccc3C2=O)C(C(=O)c2nc3ccccc3[nH]2)C1C1CCCCC1 (stereo not drawn) [Compound 25, 3-(1H-benzimidazol-2-carbonyl)-4-cyclohexyl-5-isopropylspiro[inden-2,2′-pyrrolidine]-1,3-dione]	9.67	12.4	5.67
O=C(c1nc2ccccc2[nH]1)C1C(C2CCCCC2)C(c2c[nH]c3ccccc23)NC12C(=O)c1ccccc1C2=O (stereo not drawn) [Compound 41, 3-(1H-benzimidazol-2-carbonyl)-4-cyclohexyl-5-(1H-indol-3-yl)spiro[inden-2,2′-pyrrolidine]-1,3-dione]	89.6	82.3	77.4
CCOc1ccc(C2C3CCCN3C3(C(=O)c4ccccc4C3=O)C2C(=O)c2nc3ccccc3[nH]2)cc1OCC (stereo not drawn) [Compound 5, 2-(1H-benzimidazol-2-carbonyl)-3,4-diethoxyphenyl-1,2,5,6,7,7a-hexahydrospiroinden-2,3-pyrrolizine-1,3-dione]	80.7	36.9	17.4

Source: US12637472B2, “Benzimidazole heteroatom-containing spiro compound and medicinal use thereof” (Changzhi University, priority 2023, dated 2026)
